Here are results for 26 molecules from US20090069302A1 (SMITHKLINE BEECHAM CORPORATION, priority 2006, published 2009).

Each structure is given as a SMILES string.

The target in the experiment is T1, AXOR109 (Homo sapiens, UniProt Q8TDU6).
T1 construct: expressed in transfected cells; host or cells: melanophore cells, transfected by electroporation
T1 sequence (Q8TDU6 1-330): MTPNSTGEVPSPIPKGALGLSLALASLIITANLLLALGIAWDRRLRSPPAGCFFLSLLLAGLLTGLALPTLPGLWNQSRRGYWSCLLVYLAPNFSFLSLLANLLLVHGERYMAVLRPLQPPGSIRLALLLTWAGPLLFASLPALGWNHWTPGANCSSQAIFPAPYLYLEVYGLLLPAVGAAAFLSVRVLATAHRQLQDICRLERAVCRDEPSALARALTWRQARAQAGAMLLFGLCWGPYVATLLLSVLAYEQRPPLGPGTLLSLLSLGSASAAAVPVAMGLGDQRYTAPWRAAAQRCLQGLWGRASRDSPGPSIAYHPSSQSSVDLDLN
The experiment can be described thus: Human AXOR109/Melanophore Assay. The experiment is classed as cell-based. Conditions: melanophore assay; for Emax: 1 h, normalized to alpha-MSH system max; for EC50: AXOR109 transfected melanophores. How it is done:
AXOR109 is a Gs-coupled receptor and therefore increases intracellular cAMP leading to melanosome dispersion. Compounds of the present invention were characterized in a melanophore assay as described in Jayawickreme C K, et al., Current Protocols in Pharmacology (2005) 12.9.1-12.9.16. Briefly, melanophore cells are transfected by electroporation with AXOR109 expressing cDNA. Cells are then plated in 384 well clear bottom plates at 8E3 cells per well in 50 μl of conditioned fibroblast media (CFM). Compounds to be tested are serially diluted 3-fold in DMSO and further diluted 1:100 with melanophore assay buffer (MAB)+10 nM Melatonin to yield 11 point concentration response curves. Following 2 hour incubation with MAB+1% DMSO+10 nM Melatonin, initial transmittance is read on a TwisterII/Spectramax plate reader. Compounds are then added to the cells and incubated for 1 hour, and final transmittance is read as before. Results are compared to vehicle (MAB+1% DMSO+10 nM Melatonin) and to a positive control (MAB+1% DMSO+10 nM Melatonin+200 nM alpha-MSH). Data are calculated for each well as follows: 1-(Transmitance-final/Transmitance-initial). Each well result is then normalized to alpha-MSH, the system max control for Gs/Gq coupled receptors using the following equation: (ObjX−Control1)/(Control2−Control1)*100. The percent system max is used to generate the pEC50 using the equation: y=((Vmax*x̂n)/(K̂n+x̂n))+Y2. Acceptable Z-prime values should be >0.4. Compounds of the present invention have a pEC50≧5.0 in the above described assay.

Consider `COc1ccc(S(=O)(=O)N2C[C@H](C)N(S(=O)(=O)c3ccc(OC)c(OC)c3)C[C@H]2C)cc1OC` [Example 22, trans-1,4-bis{[3,4-bis(methyloxy)phenyl]sulfonyl}-2,5-dimethylpiperazine], for which the maximum response (Emax) – broadly, the greatest response seen or fitted, relative to the assay's reference – fell in the range of 51 to 75% and the EC50 – broadly, the concentration that produces a half-maximal response – was 1260 to 10000 nM.

Turning to `COc1ccc(S(=O)(=O)N(C)CCN(C)S(=O)(=O)c2ccc3c(c2)OCCN3C)cc1OC` [Example 12, N-methyl-N-{2-[{[3,4-bis(methyloxy)phenyl]sulfonyl}(methyl)amino]ethyl}-4-methyl-3,4-dihydro-2H-1,4-benzoxazine-7-sulfonamide], the Emax was in the range of 76 to 100% and the EC50 is 1260 to 10000 nM.

In the case of `COc1ccc(S(=O)(=O)N2CC[C@H](N(C)S(=O)(=O)c3ccc(OC)c(OC)c3)C2)cc1OC` (stereo in doubt) [Example 84], the Emax is 51 to 75% and the EC50 is 1260 to 10000 nM.

`COc1ccc(S(=O)(=O)NCCNS(=O)(=O)c2ccc(OC)c(OC)c2)cc1OC` [Example 26, N,N′-1,2-ethanediylbis[3,4-bis(methyloxy)benzenesulfonamide]] gave an Emax of 76 to 100% and an EC50 of 1260 to 10000 nM.

For `COc1ccc(S(=O)(=O)N2CCN(S(=O)(=O)c3ccc(OC)c(OC)c3)C(C)(C)C2)cc1OC` [Example 50, 1,4-bis{[3,4-bis(methyloxy)phenyl]sulfonyl}-2,2-dimethylpiperazine], the Emax was 76 to 100% and the concentration for a half-maximal effect (EC50) is 126 to 1000 nM.

In turn, `COc1ccc(S(=O)(=O)N(C)CCN(C2CC2)S(=O)(=O)c2ccc(OC)c(OC)c2)cc1OC` [Example 88] had an Emax of 76 to 100% and an EC50 of 126 to 1000 nM.

`COc1ccc(S(=O)(=O)N(C)CCN(C)S(=O)(=O)c2ccc3c(c2)OCCO3)cc1OC` [Example 13, N-{2-[{[3,4-bis(methyloxy)phenyl]sulfonyl}(methyl)amino]ethyl}-N-methyl-2,3-dihydro-1,4-benzodioxin-6-sulfonamide] had a maximal effect (Emax) of 51 to 75% and a 50% effective concentration (EC50) of 1260 to 10000 nM.

`CCN([C@H]1CCN(S(=O)(=O)c2ccc(OC)c(OC)c2)C1)S(=O)(=O)c1ccc(OC)c(OC)c1` [Example 62, N-((3S)-1-{[3,4-bis(methyloxy)phenyl]sulfonyl}-3-pyrrolidinyl)-N-ethyl-3,4-bis(methyloxy)benzenesulfonamide] had a maximal response (Emax) of 76 to 100% and a concentration giving a half-maximal response (EC50) of 1260 to 10000 nM.

`CCc1cc(S(=O)(=O)N2C[C@H](C)N(S(=O)(=O)c3ccc(OC)c(OC)c3)C[C@@H]2C)ccc1OC` [Example 68, (2S,5S)-1-{[3,4-bis(methyloxy)phenyl]sulfonyl}-4-{[3-ethyl-4-(methyloxy)phenyl]sulfonyl}-2,5-dimethylpiperazine] showed a maximum response (Emax) of 76 to 100% and a 50% effective concentration (EC50) of 126 to 1000 nM.

As to `COc1ccc(S(=O)(=O)N2CCN(S(=O)(=O)c3ccc(OC)c(OC)c3)CC2)cc1` [Example 6, 1-{[3,4-bis(methyloxy)phenyl]sulfonyl}-4-{[4-(methyloxy)phenyl]sulfonyl}piperazine], the Emax was in the range of 0 to 50% and the concentration for a half-maximal effect (EC50) is 126 to 1000 nM.

Molecule `CCCN(C1CCN(S(=O)(=O)c2ccc(OC)c(OC)c2)C1)S(=O)(=O)c1ccc(OC)c(OC)c1` (stereo not drawn) [Example 56, N-(1-{[3,4-bis(methyloxy)phenyl]sulfonyl}-3-pyrrolidinyl)-3,4-bis(methyloxy)-N-propylbenzenesulfonamide] had a maximum response (Emax) of 0 to 50% and a concentration giving a half-maximal response (EC50) of 126 to 1000 nM.

On to `CC[C@@H]1CN(S(=O)(=O)c2ccc(OC)c(OC)c2)[C@@H](CC)CN1S(=O)(=O)c1ccc(OC)c(OC)c1` [Example 45, (2R,5S)-1,4-bis{[3,4-bis(methyloxy)phenyl]sulfonyl}-2,5-diethylpiperazine], for which the Emax was 76 to 100% and the 50% effective concentration (EC50) is 1260 to 10000 nM.

For the molecule `CCN(C[C@@H]1CCCN1S(=O)(=O)c1ccc(OC)c(OC)c1)S(=O)(=O)c1ccc(OC)c(OC)c1` [Example 95, N-[((2S)-1-{[3,4-bis(methyloxy)phenyl]sulfonyl}-2-pyrrolidinyl)methyl]-N-ethyl-3,4-bis(methyloxy)benzenesulfonamide], the maximum response (Emax) is 76 to 100% and the EC50 was 126 to 1000 nM.

`COc1ccc(S(=O)(=O)N2C[C@H](C)N(S(=O)(=O)c3ccc(OS(C)(=O)=O)c(OC)c3)C[C@@H]2C)cc1OC` [Example 63, 4-[((2S,5S)-4-{[3,4-bis(methyloxy)phenyl]sulfonyl}-2,5-dimethyl-1-piperazinyl)sulfonyl]-2-(methyloxy)phenyl methanesulfonate] had an EC50 of 1260 to 10000 nM.

For the molecule `COc1ccc(S(=O)(=O)N2CCN(S(=O)(=O)c3ccc4c(c3)OCCO4)CC2)cc1OC` [Example 78, 1-{[3,4-bis(methyloxy)phenyl]sulfonyl}-4-(2,3-dihydro-1,4-benzodioxin-6-ylsulfonyl)piperazine], the maximum response (Emax) lay within 51 to 75% and the 50% effective concentration (EC50) was 1260 to 10000 nM.

`COc1ccc(S(=O)(=O)N2CC(C)(C)N(S(=O)(=O)c3ccc(OC)c(OC)c3)CC2=O)cc1OC` [Example 48, 1,4-bis{[3,4-bis(methyloxy)phenyl]sulfonyl}-5,5-dimethyl-2-piperazinone] had an Emax of 76 to 100% and an EC50 of 1260 to 10000 nM.

`COc1ccc(S(=O)(=O)N2CCCN(S(=O)(=O)c3ccc4c(c3)OCCO4)CC2)cc1OC` [Example 8, 1-{[3,4-bis(methyloxy)phenyl]sulfonyl}-4-(2,3-dihydro-1,4-benzodioxin-6-ylsulfonyl)hexahydro-1H-1,4-diazepine] showed an Emax of 51 to 75% and a 50% effective concentration (EC50) of 1260 to 10000 nM.

In the case of `COc1ccc(S(=O)(=O)N(C)C[C@H]2CCCN2S(=O)(=O)c2ccc(OC)c(OC)c2)cc1OC` [Example 97, N-[((2R)-1-{[3,4-bis(methyloxy)phenyl]sulfonyl}-2-pyrrolidinyl)methyl]-N-methyl-3,4-bis(methyloxy)benzenesulfonamide], the maximal effect (Emax) lay in the range of 76 to 100% and the EC50 was under 126 nM.

`COc1ccc(S(=O)(=O)N2CCN(S(=O)(=O)c3ccc(OC)c(OC)c3)C(=O)C2=O)cc1OC` [Example 27, 1,4-bis{[3,4-bis(methyloxy)phenyl]sulfonyl}-2,3-piperazinedione] showed a maximal response (Emax) of 51 to 75% and an EC50 of 1260 to 10000 nM.

`COc1ccc(S(=O)(=O)N2[C@H](C)CN(S(=O)(=O)c3ccc(OC)c(OC)c3)C[C@@H]2C)cc1O` [Example 38, 5-[(4-{[3,4-bis(methyloxy)phenyl]sulfonyl}-2,6-cis-dimethyl-1-piperazinyl)sulfonyl]-2-(methyloxy)phenol] showed an Emax of 51 to 75% and a concentration for a half-maximal effect (EC50) of 1260 to 10000 nM.

For `COc1ccc(S(=O)(=O)N2CCN(S(=O)(=O)c3ccc(OC)c(OC)c3)CC(=O)C2)cc1OC` [Example 51, 1,4-bis{[3,4-bis(methyloxy)phenyl]sulfonyl}hexahydro-6H-1,4-diazepin-6-one], the Emax was 76 to 100% and the EC50 was 1260 to 10000 nM.

In turn, `COc1ccc(S(=O)(=O)N2CCN(S(=O)(=O)c3ccc(OC)c(OC)c3)C(C3CCCCC3)C2)cc1OC` (stereo not drawn) [Example 24, 1,4-bis{[3,4-bis(methyloxy)phenyl]sulfonyl}-2-cyclohexylpiperazine] gave an Emax of 51 to 75% and an EC50 of 1260 to 10000 nM.

In turn, `COc1ccc(S(=O)(=O)N2C[C@@H](C)N(S(=O)(=O)c3ccc4oc(=O)ccc4c3)[C@@H](C)C2)cc1OC` [Example 37, 6-[(4-{[3,4-bis(methyloxy)phenyl]sulfonyl}-2,6-cis-dimethyl-1-piperazinyl)sulfonyl]-2H-chromen-2-one] showed an Emax of 0 to 50% and an EC50 of 1260 to 10000 nM.

In the case of `COc1ccc(S(=O)(=O)N2C[C@H](C)N(S(=O)(=O)c3ccc(OC)c(OC)c3)C[C@@H]2C)cc1` [Example 72, (2S,5S)-1-{[3,4-bis(methyloxy)phenyl]sulfonyl}-2,5-dimethyl-4-{[4-(methyloxy)phenyl]sulfonyl}piperazine], the Emax was over 100% and the EC50 is 126 to 1000 nM.

For `COc1ccc(S(=O)(=O)N2CCN(S(=O)(=O)c3ccc(OC)c(OC)c3)CC(F)C2)cc1OC` [Example 52, 1,4-bis{[3,4-bis(methyloxy)phenyl]sulfonyl}-6-fluorohexahydro-1H-1,4-diazepine], the Emax is 76 to 100% and the EC50 is 126 to 1000 nM.

`COc1ccc(S(=O)(=O)N2CCN(S(=O)(=O)c3c(C)cccc3Cl)CC2)cc1OC` [Example 5, 1-{[3,4-bis(methyloxy)phenyl]sulfonyl}-4-[(2-chloro-6-methylphenyl)sulfonyl]piperazine]: the Emax fell in the range of 76 to 100% and the EC50 is 1260 to 10000 nM.
